Reference: patent US20060083830A1, “Polylysine-containing food additive and acidic adjuvant” (priority 2004, published 2006)
Several values for one entry are separate records, joined by “and”; a condition that tells them apart may be missing. Identical values can stand only once.

Experiments:
[1] = rats, two generations; Neda et al., 1999; cited from earlier work
[2] = system: many bacteria; details: Shima et al., 1984; Hiraki, 2000; cited from earlier work
[3] = system: Listeria monocytogenes; assay: Listeria monocytogenes on boiled dumpling sheets with ε-polylysine in the dough, vacuum sealed, 10° C., CFU determination; details: for Log Reduction: vs control Group A
[4] = system: Listeria monocytogenes; assay: L. monocytogenes on cooked ground turkey balls blended with ε-polylysine, with or without 5 second acidic adjuvant spray, incubated at 8° C., CFU determination; format: cell-based; details: for Log Reduction: vs control
Method: Four groups of 20 g ground uncooked turkey balls were prepared, with 54 balls prepared per group. […] Groups B-D were blended with varying amounts of ε-polylysine (“ε-PL”). Final concentrations of ε-polylysine within the turkey balls were:
After preparation, all meatballs were placed on baking sheets and baked in a conventional oven at 350° F. for 20 minutes. After baking, the meatballs were packaged separately and stored at 4° C.
The mixture was further diluted 1:5000 times with sterile saline to produce a suspension for use. […] 20 microliters of the Listeria monocytogenes suspension was inoculated onto the exterior of each turkey ball. The turkey balls were incubated at room temperature for 30 min post-inoculation to allow bacteria to attach.
Each group of meatballs (54 per group) was divided into two groups of 27 meatballs and labeled as control or treated meatballs as follows: AC, AT, BC, BT, CC, CT, DC and DT, respectively. Control meatballs labeled AC, BC, CC, and DC were sprayed for 5 seconds with sterile water. Treated meatballs labeled AT, BT, CT and DT were sprayed for 5 seconds with the acidic adjuvant prepared in Example 4 above (Safe2O®brandRTE 01, Mionix Corporation, Rocklin, Calif.) diluted 2 parts water to 1 part solution, having a final pH of about 1.5. After the spray treatment, the meatballs were packaged individually, vacuum sealed and incubated at 8° C.
The microbiological assay was performed after 24 hours, 1 week, 2 weeks, 3 weeks, and 4 weeks. After each designated time period had passed, three bags from each group of meat balls were unpacked, transferred to a stomacher bag along with 20 ml of sterile 0.1% peptone water. Each meatball was hand crushed and stomached at high speed for 2 minutes.

For “poly(imino(2-amino-1-oxo-1,6-hexanediyl)) [ε-PL]”, which “safety as a food additive” value [1] is on record?
Its value is “no adverse reproductive toxological effects”.

What about the “minimum inhibitory concentration (MIC) for the growth of many bacteria” value [2] of the same substance?
Its value is “below 100 μg mL^−1”.

What about the CFU/dumpling ([3]; 1000 ppm ε-PL, after 1 hour) of the same substance?
Its CFU/dumpling is 3.80E+02 CFU/dumpling and 4.00E+02 CFU/dumpling and 2.00E+02 CFU/dumpling.

And the “average Log Value” ([3]; 1000 ppm ε-PL, after 1 hour)?
The value was 2.15.

And the “average of CFU/dumpling” value ([3]; 1000 ppm ε-PL, after 1 hour)?
The value was 3.27E+02 CFU/dumpling.

What about the “Log Reduction” value ([3]; 1000 ppm ε-PL, after 1 hour) of the same substance?
Its value is 0.89.

And the “average Log Value” ([3]; 1000 ppm ε-PL, after 24 hours)?
Its value is 2.32.

What about the “average of CFU/dumpling” value ([3]; 1000 ppm ε-PL, after 24 hours) of the same substance?
Its value is 2.10E+02 CFU/dumpling.

And the “Log Reduction” value ([3]; 1000 ppm ε-PL, after 24 hours)?
The value was 2.42.

What about the post-lethality effect ([3]; 2000 ppm and above, limits of detection 10 CFU/piece) of the same substance?
Its post-lethality effect is “killed the Listeria down to the limits of detection”.

And the CFU/dumpling ([3]; 2000 ppm ε-PL, after 1 hour)?
Its CFU/dumpling is <1.00E+01 CFU/dumpling.

And the “average Log Value” ([3]; 2000 ppm ε-PL, after 1 hour)?
Its value is <1.00.

And the “average of CFU/dumpling” value ([3]; 2000 ppm ε-PL, after 1 hour)?
Its value is <1.00E+01 CFU/dumpling.

What about the “Log Reduction” value ([3]; 2000 ppm ε-PL, after 1 hour) of the same substance?
The value was >2.41.

What about the CFU/dumpling ([3]; 2000 ppm ε-PL, after 24 hours) of the same substance?
The CFU/dumpling was <1.00E+01 CFU/dumpling.

And the “average Log Value” ([3]; 2000 ppm ε-PL, after 24 hours)?
The value was <1.00.

What about the “average of CFU/dumpling” value ([3]; 2000 ppm ε-PL, after 24 hours) of the same substance?
The value was <1.00E+01 CFU/dumpling.

What about the “Log Reduction” value ([3]; 2000 ppm ε-PL, after 24 hours) of the same substance?
Its value is >3.74.

What about the CFU/dumpling ([3]; 3000 ppm ε-PL, after 1 hour) of the same substance?
The CFU/dumpling was <1.00E+01 CFU/dumpling.

What about the “average Log Value” ([3]; 3000 ppm ε-PL, after 1 hour) of the same substance?
Its value is <1.00.

What about the “average of CFU/dumpling” value ([3]; 3000 ppm ε-PL, after 1 hour) of the same substance?
The value was <1.00E+01 CFU/dumpling.

What about the “Log Reduction” value ([3]; 3000 ppm ε-PL, after 1 hour) of the same substance?
The value was >2.41.

And the CFU/dumpling ([3]; 3000 ppm ε-PL, after 24 hours)?
The CFU/dumpling was <1.00E+01 CFU/dumpling.

And the “average Log Value” ([3]; 3000 ppm ε-PL, after 24 hours)?
Its value is <1.00.

And the “average of CFU/dumpling” value ([3]; 3000 ppm ε-PL, after 24 hours)?
Its value is <1.00E+01 CFU/dumpling.

What about the “Log Reduction” value ([3]; 3000 ppm ε-PL, after 24 hours) of the same substance?
Its value is >3.74.

What about the “replication of Listeria monocytogenes” value ([3]; final concentration of 1000-3000 ppm in flour portion of dumpling) of the same substance?
The value was “completely suppressed replication of Listeria monocytogenes”.

And the “average Log Value” ([4]; 1000 ppm ε-PL, after 1 week)?
The value was 5.38.

What about the “average of CFU/g” value ([4]; 1000 ppm ε-PL, after 1 week) of the same substance?
Its value is 2.41E+05 CFU/g.

What about the “Log Reduction” value ([4]; 1000 ppm ε-PL, after 1 week) of the same substance?
Its value is 2.99.

And the “average Log Value” ([4]; 1000 ppm ε-PL, after 2 weeks)?
Its value is 4.76.

And the “average of CFU/g” value ([4]; 1000 ppm ε-PL, after 2 weeks)?
The value was 5.72E+04 CFU/g.

What about the “Log Reduction” value ([4]; 1000 ppm ε-PL, after 2 weeks) of the same substance?
The value was 4.09.

And the “average Log Value” ([4]; 1000 ppm ε-PL, after 3 weeks)?
Its value is 5.94.

What about the “average of CFU/g” value ([4]; 1000 ppm ε-PL, after 3 weeks) of the same substance?
The value was 8.75E+05 CFU/g.

And the “average Log Value” ([4]; 1000 ppm ε-PL, after 4 weeks)?
The value was 6.67.

And the “average of CFU/g” value ([4]; 1000 ppm ε-PL, after 4 weeks)?
The value was 4.64E+06 CFU/g.

And the “Log Reduction” value ([4]; 1000 ppm ε-PL, after 4 weeks)?
Its value is 1.91.

What about the “average Log Value” ([4]; 1000 ppm ε-PL, after 24 hours) of the same substance?
Its value is 2.22.

What about the “average of CFU/g” value ([4]; 1000 ppm ε-PL, after 24 hours) of the same substance?
Its value is 1.67E+02 CFU/g.

And the “Log Reduction” value ([4]; 1000 ppm ε-PL, after 24 hours)?
The value was 1.48.

What about the “average Log Value” ([4]; 2000 ppm ε-PL, after 1 week) of the same substance?
The value was 1.40.

What about the “average of CFU/g” value ([4]; 2000 ppm ε-PL, after 1 week) of the same substance?
Its value is 2.53E+01 CFU/g.

And the “Log Reduction” value ([4]; 2000 ppm ε-PL, after 1 week)?
The value was 6.97.

What about the “average Log Value” ([4]; 2000 ppm ε-PL, after 2 weeks) of the same substance?
Its value is 4.27.

And the “average of CFU/g” value ([4]; 2000 ppm ε-PL, after 2 weeks)?
Its value is 1.88E+04 CFU/g.

And the “Log Reduction” value ([4]; 2000 ppm ε-PL, after 2 weeks)?
Its value is 4.57.

And the “average Log Value” ([4]; 2000 ppm ε-PL, after 3 weeks)?
Its value is 2.95.

And the “average of CFU/g” value ([4]; 2000 ppm ε-PL, after 3 weeks)?
The value was 8.96E+02 CFU/g.

What about the “Log Reduction” value ([4]; 2000 ppm ε-PL, after 3 weeks) of the same substance?
The value was 5.33.

And the “average Log Value” ([4]; 2000 ppm ε-PL, after 4 weeks)?
Its value is 3.86.

What about the “average of CFU/g” value ([4]; 2000 ppm ε-PL, after 4 weeks) of the same substance?
The value was 7.18E+03 CFU/g.

And the “Log Reduction” value ([4]; 2000 ppm ε-PL, after 4 weeks)?
Its value is 4.72.

And the “average Log Value” ([4]; 2000 ppm ε-PL, after 24 hours)?
The value was 1.36.

What about the “average of CFU/g” value ([4]; 2000 ppm ε-PL, after 24 hours) of the same substance?
The value was 2.27E+01 CFU/g.

And the “Log Reduction” value ([4]; 2000 ppm ε-PL, after 24 hours)?
Its value is 2.35.

And the “average Log Value” ([4]; 3000 ppm ε-PL, after 1 week)?
Its value is <0.94.

And the “average of CFU/g” value ([4]; 3000 ppm ε-PL, after 1 week)?
The value was <8.67E+00 CFU/g.

And the “Log Reduction” value ([4]; 3000 ppm ε-PL, after 1 week)?
Its value is >7.43.

And the “average Log Value” ([4]; 3000 ppm ε-PL, after 2 weeks)?
The value was <2.21.

And the “average of CFU/g” value ([4]; 3000 ppm ε-PL, after 2 weeks)?
Its value is <1.61E+02 CFU/g.

What about the “Log Reduction” value ([4]; 3000 ppm ε-PL, after 2 weeks) of the same substance?
The value was <6.64.

And the CFU/g ([4]; 3000 ppm ε-PL, after 3 weeks)?
The CFU/g was <2.00E+00 CFU/g.

What about the “average Log Value” ([4]; 3000 ppm ε-PL, after 3 weeks) of the same substance?
The value was <0.30.

And the “average of CFU/g” value ([4]; 3000 ppm ε-PL, after 3 weeks)?
Its value is <2.00E+00 CFU/g.

And the “Log Reduction” value ([4]; 3000 ppm ε-PL, after 3 weeks)?
The value was <7.98.

What about the “average Log Value” ([4]; 3000 ppm ε-PL, after 4 weeks) of the same substance?
Its value is >3.56.

What about the “average of CFU/g” value ([4]; 3000 ppm ε-PL, after 4 weeks) of the same substance?
Its value is >3.61E+03 CFU/g.

What about the “Log Reduction” value ([4]; 3000 ppm ε-PL, after 4 weeks) of the same substance?
Its value is <5.02.

And the CFU/g ([4]; 3000 ppm ε-PL, after 24 hours)?
Its CFU/g is 1.40E+01 CFU/g and 1.60E+01 CFU/g and 1.00E+01 CFU/g.

And the “average Log Value” ([4]; 3000 ppm ε-PL, after 24 hours)?
Its value is 1.12.

What about the “average of CFU/g” value ([4]; 3000 ppm ε-PL, after 24 hours) of the same substance?
The value was 1.33E+01 CFU/g.

And the “Log Reduction” value ([4]; 3000 ppm ε-PL, after 24 hours)?
Its value is 2.58.

What about the “controlling the outgrowth of Listeria, ε-PL alone vs secondary acidic adjuvant spray for 5 sec” value ([4]; Tables 2.1-2.5) of the same substance?
Its value is “more effective in controlling the outgrowth of Listeria than the effect of a secondary spray application of the acidic adjuvant”.
